The subject of this assay is P388 leukemia ip, CD2F1 mice, survival T/C. Kind of assay: NCI In Vivo Anticancer Drug Screen. Data for tumor model P388 Leukemia (intraperitoneal) in CD2F1 (CDF1) mice. To be noted: endpoint: median survival time, higher = longer survival. A digest of the protocol:
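Mice carrying the transplanted tumor received test compound or vehicle. Survival was recorded in each group, and the value is the treated-group measurement divided by that of the vehicle-treated control group.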

[1] abbreviates: dose: 6.25 mg/kg/injection, schedule: Q01DX009 (ip), vehicle: Klucel (hydroxypropylcellulose) (HPC).
Setting [2] is: dose: 50.0 mg/kg/injection, schedule: Q01DX009 (ip), vehicle: Klucel (hydroxypropylcellulose) (HPC).
The mark [3] stands for this setting: dose: 50.0 mg/kg/injection, schedule: Q01DX009 (ip), vehicle: saline with Tween-80.
Setting [4] is: dose: 100.0 mg/kg/injection, schedule: Q01DX009 (ip), vehicle: Klucel (hydroxypropylcellulose) (HPC).
The mark [5] stands for this setting: dose: 200.0 mg/kg/injection, schedule: Q01DX009 (ip), vehicle: saline with Tween-80.
Setting [6] is: dose: 60.0 mg/kg/injection, schedule: Q01DX005 (ip), vehicle: saline with Tween-80.
[7] abbreviates: dose: 120.0 mg/kg/injection, schedule: Q01DX005 (ip), vehicle: saline with Tween-80.
Setting [8] is: dose: 240.0 mg/kg/injection, schedule: Q01DX005 (ip), vehicle: saline with Tween-80.
Setting [9] is: dose: 100.0 mg/kg/injection, schedule: Q01DX009 (ip), vehicle: saline with Tween-80.
Where [10] appears, read: dose: 100.0 mg/kg/injection, schedule: Q01DX001 (ip), vehicle: saline with Tween-80.
[11] abbreviates: dose: 200.0 mg/kg/injection, schedule: Q01DX001 (ip), vehicle: saline with Tween-80.
[12] abbreviates: dose: 400.0 mg/kg/injection, schedule: Q01DX001 (ip), vehicle: saline with Tween-80.
The mark [13] stands for this setting: dose: 100.0 mg/kg/injection, schedule: Q04DX003 (ip), vehicle: saline with Tween-80.

Values joined by “and” are separate entries in the source; they are usually repeats but may differ in a detail not shown here. Identical values can stand only once. Inconclusive results and toxic doses are left out.

With `NC(CSC(c1ccccc1)(c1ccccc1)c1ccccc1)C(=O)O` (stereo not drawn), the T/C is, setting by setting: (dose: 1.56 mg/kg/injection, schedule: Q01DX009 (ip), vehicle: saline with Tween-80) 108 % of control; (dose: 3.12 mg/kg/injection, schedule: Q01DX009 (ip), vehicle: Klucel (hydroxypropylcellulose) (HPC)) 86 % of control; under setting [1], 121 % of control and 90 % of control; (dose: 6.25 mg/kg/injection, schedule: Q01DX009 (ip), vehicle: saline with Tween-80) 119 % of control; (dose: 6.25 mg/kg/injection, schedule: Q01DX009 (ip), vehicle: water) 110 % of control and 118 % of control; (dose: 12.5 mg/kg/injection, schedule: Q01DX009 (ip), vehicle: Klucel (hydroxypropylcellulose) (HPC)) 92 % of control. Also, the T/C (dose: 12.5 mg/kg/injection, schedule: Q01DX009 (ip), vehicle: water) was 118 % of control; the T/C (dose: 20.0 mg/kg/injection, schedule: Q01DX001 (ip), vehicle: water) was 104 % of control; the T/C (dose: 25.0 mg/kg/injection, schedule: Q01DX009 (ip), vehicle: Klucel (hydroxypropylcellulose) (HPC)) was 163 % of control; the T/C (dose: 25.0 mg/kg/injection, schedule: Q01DX009 (ip), vehicle: water) is 168 % of control; the T/C (dose: 25.0 mg/kg/injection, schedule: Q01DX009 (oral), vehicle: saline with Tween-80) is 123 % of control; the T/C (dose: 40.0 mg/kg/injection, schedule: Q01DX001 (ip), vehicle: water) was 111 % of control. Moreover, the T/C reads like this: (dose: 40.0 mg/kg/injection, schedule: Q01DX009 (ip), vehicle: water) 168 % of control and 186 % of control; under setting [2], 192 % of control; under setting [3], 180 % of control [middle of 5 runs]; (dose: 50.0 mg/kg/injection, schedule: Q01DX009 (ip), vehicle: water) 159 % of control and 163 % of control and 183 % of control; (dose: 50.0 mg/kg/injection, schedule: Q01DX009 (oral), vehicle: saline with Tween-80) 119 % of control; (dose: 66.0 mg/kg/injection, schedule: Q04DX003 (ip), vehicle: Klucel (hydroxypropylcellulose) (HPC)) 225 % of control. In addition, the T/C was 111 % of control (dose: 80.0 mg/kg/injection, schedule: Q01DX001 (ip), vehicle: water); 100 % of control under setting [4]; 153 % of control (dose: 100.0 mg/kg/injection, schedule: Q01DX009 (oral), vehicle: saline with Tween-80); 175 % of control (dose: 100.0 mg/kg/injection, schedule: Q04DX003 (ip), vehicle: Klucel (hydroxypropylcellulose) (HPC)); 167 % of control and 175 % of control under setting [5].

For the molecule `COc1c(C)n(CCO)ccc1=O`, the T/C by setting is: (dose: 50.0 mg/kg/injection, schedule: Q01DX005 (ip), vehicle: saline) 102 % of control and 104 % of control; (dose: 100.0 mg/kg/injection, schedule: Q01DX005 (ip), vehicle: saline) 99 % of control and 100 % of control; (dose: 200.0 mg/kg/injection, schedule: Q01DX005 (ip), vehicle: saline) 99 % of control and 100 % of control; (dose: 400.0 mg/kg/injection, schedule: Q01DX005 (ip), vehicle: saline) 99 % of control and 103 % of control.

In the case of `CCOC(=O)NC(c1ccc(C(NC(=O)OCC)P(=O)(O)NC23CC4CC(CC(C4)C2)C3)cc1)P(=O)(O)NC12CC3CC(CC(C3)C1)C2` (stereo not drawn), the T/C under setting [6] is 105 % of control, the T/C under setting [7] was 105 % of control and the T/C under setting [8] was 98 % of control.

As to `Oc1ccc(C2(c3ccc(O)cc3)C3CC4CC(C3)CC2C4)cc1`, the T/C is, setting by setting: under setting [2], 104 % of control; under setting [4], 103 % of control; (dose: 200.0 mg/kg/injection, schedule: Q01DX009 (ip), vehicle: Klucel (hydroxypropylcellulose) (HPC)) 100 % of control.

On to `COCC1CCOC(C(C)C)O1` (stereo not drawn), for which the T/C was 101 % of control (dose: 60.0 mg/kg/injection, schedule: Q01DX005 (ip), vehicle: saline); 100 % of control (dose: 120.0 mg/kg/injection, schedule: Q01DX005 (ip), vehicle: saline); 100 % of control (dose: 240.0 mg/kg/injection, schedule: Q01DX005 (ip), vehicle: saline).

`CC(O)C(NC(=O)c1ccccc1)C(=O)O` (stereo not drawn): the T/C under setting [3] is 99 % of control, the T/C under setting [9] was 95 % of control and the T/C under setting [5] was 91 % of control.

Regarding `CC12CC3CC(C)(C1)CC(OCCN)(C3)C2`, the T/C by setting is: under setting [6], 101 % of control; under setting [7], 104 % of control.

In the case of `CC(CC(=O)c1ccccc1)=NCCCCCN=C(C)CC(=O)c1ccccc1`, the T/C under setting [3] is 100 % of control, the T/C under setting [9] was 102 % of control and the T/C under setting [5] is 100 % of control.

Consider `Cc1c(-c2ccccc2)oc(=O)c(Cl)c1N(C)c1ccccc1`, for which the T/C is 94 % of control under setting [10], 99 % of control under setting [11] and 91 % of control under setting [12].

Turning to `Cc1c(Cl)cccc1NS(=O)(=O)c1ccccc1`, the T/C by setting is: under setting [13], 104 % of control; (dose: 200.0 mg/kg/injection, schedule: Q04DX003 (ip), vehicle: saline with Tween-80) 104 % of control; (dose: 400.0 mg/kg/injection, schedule: Q04DX003 (ip), vehicle: saline with Tween-80) 90 % of control.

In the case of `C/C(Cl)=C\C(=O)c1c(C)[nH]n(-c2ccccc2)c1=O`, the T/C by setting is: (dose: 50.0 mg/kg/injection, schedule: Q01DX005 (ip), vehicle: Klucel (hydroxypropylcellulose) (HPC)) 99 % of control; (dose: 100.0 mg/kg/injection, schedule: Q01DX005 (ip), vehicle: Klucel (hydroxypropylcellulose) (HPC)) 111 % of control.

Regarding `O=C(O)c1cc2c3ccccc3ncc2c2ccccc12`, the T/C under setting [10] is 113 % of control, the T/C under setting [11] is 100 % of control and the T/C under setting [12] was 100 % of control.

For `[C-]#[N+]C(C)Cc1ccccc1` (stereo not drawn), the T/C is, setting by setting: (dose: 1.56 mg/kg/injection, schedule: Q04DX003 (ip), vehicle: saline) 101 % of control; (dose: 3.13 mg/kg/injection, schedule: Q04DX003 (ip), vehicle: saline) 103 % of control; (dose: 6.25 mg/kg/injection, schedule: Q04DX003 (ip), vehicle: saline) 103 % of control; (dose: 12.5 mg/kg/injection, schedule: Q04DX003 (ip), vehicle: saline) 105 % of control; (dose: 25.0 mg/kg/injection, schedule: Q04DX003 (ip), vehicle: saline) 104 % of control.

Take `CCOC(=O)c1cn2ccccc2c1C(=O)OCC`: the T/C under setting [6] was 108 % of control, the T/C under setting [7] was 99 % of control and the T/C under setting [8] was 92 % of control.

As for `Cc1ccc(CC2C=CCN2)cc1` (stereo not drawn), the T/C reads like this: (dose: 100.0 mg/kg/injection, schedule: Q01DX001 (ip), vehicle: distilled water + alcohol) 99 % of control; (dose: 200.0 mg/kg/injection, schedule: Q01DX001 (ip), vehicle: distilled water + alcohol) 100 % of control.

As for `CC(=Nc1ccc(C)cc1N)c1c(O)cc(C)oc1=O`, the T/C is 95 % of control (dose: 60.0 mg/kg/injection, schedule: Q01DX005 (ip), vehicle: Klucel (hydroxypropylcellulose) (HPC)); 96 % of control (dose: 120.0 mg/kg/injection, schedule: Q01DX005 (ip), vehicle: Klucel (hydroxypropylcellulose) (HPC)); 101 % of control (dose: 240.0 mg/kg/injection, schedule: Q01DX005 (ip), vehicle: Klucel (hydroxypropylcellulose) (HPC)).

For `C=C(C)C(=O)O[C@H]1C[C@@]2(C)OC(=CC2=O)/C(CO)=C\[C@H]2OC(=O)C(=C)[C@H]12`, the T/C was 108 % of control (dose: 1.56 mg/kg/injection, schedule: Q01DX009 (ip), vehicle: Klucel (hydroxypropylcellulose) (HPC)); 106 % of control (dose: 3.13 mg/kg/injection, schedule: Q01DX009 (ip), vehicle: Klucel (hydroxypropylcellulose) (HPC)); 117 % of control under setting [1].

Turning to `CCN(C(=O)CCl)c1ccccc1C`, the T/C was 100 % of control (dose: 50.0 mg/kg/injection, schedule: Q04DX003 (ip), vehicle: saline with Tween-80) and 100 % of control under setting [13].
